Assay results reported in PMC7864068, “α2-Macroglobulin-like protein 1 can conjugate and inhibit proteases through their hydroxyl groups, because of an enhanced reactivity of its thiol ester” (The Journal of Biological Chemistry, 2021).

Experiments:
[1] = molecular target: T1, A2ML1 (α2-macroglobulin-like protein 1) (Homo sapiens, UniProt A8K2U0); experiment: LC-MS/MS PRM of the pepsin-digested thiol ester peptide conjugate; type: biochemical; conditions: covalent ester at thiol ester Gln-973; A2ML1 activated by chymotrypsin; 200 mM glycerol, HBS pH 7.4, 37 °C
T1 construct: full-length recombinant, secreted by HEK293 Freestyle cells, no tag mentioned, purified by Zn IMAC, anion exchange and size exclusion; monomer; bait region cleaved by chymotrypsin in the assay
T1 sequence (A8K2U0 18-1454): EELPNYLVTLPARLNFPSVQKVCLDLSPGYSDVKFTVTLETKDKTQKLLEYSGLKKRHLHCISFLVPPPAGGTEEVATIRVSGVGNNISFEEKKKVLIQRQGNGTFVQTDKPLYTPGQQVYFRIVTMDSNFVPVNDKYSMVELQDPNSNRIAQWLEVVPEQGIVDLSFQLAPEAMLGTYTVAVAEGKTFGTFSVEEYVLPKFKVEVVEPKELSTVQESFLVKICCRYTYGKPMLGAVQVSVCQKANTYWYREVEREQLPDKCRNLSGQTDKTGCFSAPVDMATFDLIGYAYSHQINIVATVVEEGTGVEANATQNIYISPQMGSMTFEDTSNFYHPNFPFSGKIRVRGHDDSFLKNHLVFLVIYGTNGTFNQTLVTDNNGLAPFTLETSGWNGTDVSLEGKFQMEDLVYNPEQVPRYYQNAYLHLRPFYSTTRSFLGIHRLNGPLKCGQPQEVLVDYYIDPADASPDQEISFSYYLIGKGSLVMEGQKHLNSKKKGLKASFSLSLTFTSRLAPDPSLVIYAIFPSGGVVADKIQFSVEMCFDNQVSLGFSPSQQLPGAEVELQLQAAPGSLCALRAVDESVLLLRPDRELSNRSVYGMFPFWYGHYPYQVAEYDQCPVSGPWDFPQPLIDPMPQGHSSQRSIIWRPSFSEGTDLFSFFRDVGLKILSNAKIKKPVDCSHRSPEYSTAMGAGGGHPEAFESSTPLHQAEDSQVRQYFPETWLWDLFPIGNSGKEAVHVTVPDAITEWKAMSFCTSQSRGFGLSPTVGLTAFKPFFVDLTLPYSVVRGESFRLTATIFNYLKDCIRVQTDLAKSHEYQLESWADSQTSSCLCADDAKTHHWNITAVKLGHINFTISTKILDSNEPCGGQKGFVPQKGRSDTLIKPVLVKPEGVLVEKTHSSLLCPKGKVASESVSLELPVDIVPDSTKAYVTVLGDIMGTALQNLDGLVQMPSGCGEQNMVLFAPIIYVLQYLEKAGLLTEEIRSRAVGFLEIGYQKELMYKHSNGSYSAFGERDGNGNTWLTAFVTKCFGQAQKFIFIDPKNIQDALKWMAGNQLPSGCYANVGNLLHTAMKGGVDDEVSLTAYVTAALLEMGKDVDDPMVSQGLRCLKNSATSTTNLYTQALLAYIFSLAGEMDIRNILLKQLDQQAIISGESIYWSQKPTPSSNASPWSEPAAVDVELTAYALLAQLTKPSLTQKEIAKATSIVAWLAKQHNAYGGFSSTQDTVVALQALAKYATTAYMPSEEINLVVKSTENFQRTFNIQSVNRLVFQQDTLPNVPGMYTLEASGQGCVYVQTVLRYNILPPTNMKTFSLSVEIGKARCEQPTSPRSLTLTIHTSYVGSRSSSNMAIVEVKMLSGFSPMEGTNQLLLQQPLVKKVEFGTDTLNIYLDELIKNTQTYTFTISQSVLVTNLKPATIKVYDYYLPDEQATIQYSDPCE

A2M (α2-macroglobulin) = molecular target: T2, A2M (α2-macroglobulin) (Homo sapiens, UniProt P01023, N1088H); experiment: as above; type: biochemical; conditions: covalent ester at thiol ester Gln-975; recombinant A2M activated by chymotrypsin; 200 mM glycerol, HBS pH 7.4, 37 °C
T2 construct: WT purified from plasma; N1088H recombinant from HEK293 cells (gene based on mRNA M11311), native form enriched by LRP1 depletion; tetramer; cleaved by chymotrypsin in the assay
T2 sequence (P01023 24-1474 N1088H): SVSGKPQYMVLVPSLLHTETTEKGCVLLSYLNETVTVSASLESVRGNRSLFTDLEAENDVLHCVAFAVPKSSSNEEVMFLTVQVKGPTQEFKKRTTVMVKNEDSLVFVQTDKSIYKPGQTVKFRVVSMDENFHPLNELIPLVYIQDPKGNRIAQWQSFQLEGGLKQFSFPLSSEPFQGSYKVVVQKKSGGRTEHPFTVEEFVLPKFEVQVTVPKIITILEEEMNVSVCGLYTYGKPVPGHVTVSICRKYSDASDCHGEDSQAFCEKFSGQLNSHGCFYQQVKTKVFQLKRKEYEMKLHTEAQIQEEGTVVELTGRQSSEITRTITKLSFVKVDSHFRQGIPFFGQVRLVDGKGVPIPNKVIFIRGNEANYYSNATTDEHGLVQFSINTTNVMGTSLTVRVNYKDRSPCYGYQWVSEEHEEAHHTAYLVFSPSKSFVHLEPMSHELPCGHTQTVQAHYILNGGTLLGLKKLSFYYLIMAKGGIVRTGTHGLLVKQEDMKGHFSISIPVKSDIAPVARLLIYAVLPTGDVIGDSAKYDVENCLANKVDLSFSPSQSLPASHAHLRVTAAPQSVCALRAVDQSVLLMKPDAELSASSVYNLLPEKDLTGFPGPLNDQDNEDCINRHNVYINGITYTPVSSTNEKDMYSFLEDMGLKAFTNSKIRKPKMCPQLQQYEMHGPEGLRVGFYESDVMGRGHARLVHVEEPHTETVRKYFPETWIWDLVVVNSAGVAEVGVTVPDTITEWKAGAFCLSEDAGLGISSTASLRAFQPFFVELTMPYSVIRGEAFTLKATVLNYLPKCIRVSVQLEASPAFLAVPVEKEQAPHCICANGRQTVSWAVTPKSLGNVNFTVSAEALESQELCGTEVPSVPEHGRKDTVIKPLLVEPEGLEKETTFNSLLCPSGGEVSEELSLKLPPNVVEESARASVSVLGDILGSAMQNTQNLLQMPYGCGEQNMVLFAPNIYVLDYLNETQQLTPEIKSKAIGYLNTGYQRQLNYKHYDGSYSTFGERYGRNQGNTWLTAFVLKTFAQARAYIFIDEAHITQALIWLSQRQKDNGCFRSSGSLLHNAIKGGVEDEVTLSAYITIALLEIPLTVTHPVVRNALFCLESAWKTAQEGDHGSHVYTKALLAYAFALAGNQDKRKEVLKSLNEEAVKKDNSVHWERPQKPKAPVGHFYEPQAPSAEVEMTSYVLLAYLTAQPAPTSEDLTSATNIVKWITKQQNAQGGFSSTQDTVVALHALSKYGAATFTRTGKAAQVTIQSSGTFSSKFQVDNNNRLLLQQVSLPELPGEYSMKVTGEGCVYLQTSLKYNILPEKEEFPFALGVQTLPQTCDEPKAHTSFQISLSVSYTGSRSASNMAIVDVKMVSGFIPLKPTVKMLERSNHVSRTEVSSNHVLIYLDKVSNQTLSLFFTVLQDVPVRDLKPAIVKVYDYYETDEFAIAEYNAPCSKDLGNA

OCC(O)CO [glycerol]
LC-MS/MS PRM of the pepsin-digested thiol ester peptide conjugate [1]: the reaction product with the hydroxyl substrate glycerol was only detected for WT A2ML1
LC-MS/MS PRM of the pepsin-digested thiol ester peptide conjugate (A2M (α2-macroglobulin)): reaction products between the thiol ester and glycerol was detected for A2M N1088H
